The numbers were not newly measured in US20220305008A1, “TREATMENT OF CANCER HAVING GNAQ OR GNA11 GENETIC MUTATIONS WITH PROTEIN KINASE C INHIBITORS” (IDEAYA BIOSCIENCES, INC., priority 2019, published 2022), which cites them from elsewhere.

For data set [1], the system named is metastatic uveal melanoma (MUM). The conditions noted are these: patients with MUM (metastatic uveal melanoma).
For data set [2] the following is noted: in vivo, po.

As for `CC1(N)CCN(c2cccnc2NC(=O)c2nc(-c3ncccc3C(F)(F)F)cnc2N)CC1` [IDE196], the anti-tumor activity entry in data set [1] is given as “preliminary anti-tumor activity”. Moreover, in data set [2], the “safety and tolerability of dose” value was “safe and tolerable”.
